Patent publication US20240351977A1, “Compositions and Methods For Reducing Immune Intolerance and Treating Autoimmune Disorders” (Lapix Therapeutics, Inc., priority 2021, published 2024)
Blank lines part the entries; values can stand above or below the molecule they belong to.

Legend:
[1] = tested on: FoxP3^+/TIM3^+ CD4 T-cells; assay: In vitro dose-response analysis in murine T-cells (splenocytes, flow cytometry); type: cell-based, C57BL/6 mice; conditions: for change in FoxP3+/TIM3+ CD4 T-cells with dose: 48 μM to 1.5 μM; for EC50 / EC90: Mus musculus, T-cell, increase in percent FoxP3+/TIM3+ CD4 T-cells, 30:70 drug:DMPC liposomes, 4-parameter model, Emax fixed to 7.9%; for EC50: read-out: EC50 mean (SE); for EC90: read-out: EC90 mean (SE)
Procedure: Compound 1 and Compound 2 were each formulated with dimyristoylphosphatidylcholine (DMPC) at a 30:70 drug to lipid molar ratio. Liposomes were synthesized according to Example 2 in PBS.
Splenocytes from naïve C57BL/6 mice were stained with CFSE, prepared, cultured, and dosed. Cells were seeded at 2×10^5 cells/well. Cells were dosed with each compound from 48 μM to 1.5 μM at a log 2 dilution scheme. Cells were incubated for 72 hours before phenotyping for FoxP3^+/TIM3^+ CD4 T-cells. Flow cytometer analysis was performed to assess changes in percent FoxP3^+/TIM3^+ CD4 T-cells as a function of treatment and dose. Concentration versus response was fitted to a four- or five-parameter log-logistic model (using the “drc” package in “R”). The EC50 and EC90 values were obtained by model fitting.

[2] = tested on: MOG35-55-Induced Murine EAE Model; assay: MOG35-55-induced murine EAE model, prophylactic and therapeutic treatment; type: in vivo, mice
Procedure: Compound 2 was formulated with 1,2-distearoyl-sn-glycero-3-phosphocholine (DSPC) at a molar ratio of 3.75:96.25 Compound 2:DSPC. Two test articles were formulated and tested. The first formulation was made with Compound 2:DSPC with MOG35-55, referred to as Compound 2/MOG35-55. Another formulation was made without […], and is referred to as Compound 2. […] The ratio of Compound 2 to DSPC was chosen based on in vitro dose-response studies. Liposomes were prepared as described in Example 2, in PBS and extruded through a […] filter. Animals were dose with 100 μl of 42 μM Compound 2 or 100 μl of 42 μM/1 μg Compound 2/MOG35-55 per mouse PO QD. This dose was selected based on in vitro dose-response analysis.
In the active EAE model, mice are immunized with MOG35-55 peptide emulsified in Complete Freund's Adjuvant (CFA) by subcutaneous injection at the tail base (0.1 mL of emulsion/mouse) under anesthesia. On the day of injection (Day 0) and 2 days later, mice receive an intraperitoneal injection of Pertussis Toxin (PT) in PBS at 600 ng/mouse/dose (0.1 mL).
Symptoms typically develop in mice 9-14 days after immunization (Day 0). Daily observation and scoring of mice start on Day 9 and continue until the end of the study. Table 10 details the expected clinical symptoms and the scoring criteria used in this study.
Mice were dosed with 100 μl of 42 μM Compound 2 or 100 μl of 42 μM of Compound 2 co-formulated with 1 μg of MOG35-55 (Compound 2/MOG35-55) orally QD for the duration of the study.
To evaluate the therapeutic effects of Compound 2, treatment was initiated after the first clinical symptoms were observed. […] The treatment arm received 100 μl of 42 μM Compound 2 PO QD for the remainder of the study. Mice in all groups were monitored and scored daily for clinical symptoms. Once a mouse reached a score of five as per Table 11 or was found dead in the cage it was marked as an event in the survival analysis.

FoxP3^+/CD4^+ T-cells [3] = assay: Pharmacodynamic effects of a single PO dose in mice (splenocyte phenotyping); type: in vivo; conditions: for percentage of FoxP3+/CD4+ T-cells, mean value: single oral gavage, 10:90 Compound 2:DMPC
Procedure: Compound 2 was dissolved in DMSO and formulated with 1,2-dimyristoyl-sn-glycero-3-phosphocholine (DMPC) at a molar ratio of 10:90 Compound 2:DMPC, as described in Example 2. Animals were dosed according to Table 7.
To evaluate the PD effects of a single dose of Compound 2 in mice, the animals were administered a single oral gavage as per their group assignment (Table 7). Five days after the oral dose, the animals were sacrificed and their spleens were collected for T-cell phenotyping. The study included an ex vivo analysis followed by a dose-response analysis (FIG. 4A). The spleens collected for splenocyte analysis were prepared into a single-cell suspension for cellular phenotyping by flow cytometry (eBioscience, Inc., San Diego, CA). Cells were stained and gated for CD4. Percent FoxP3^+/CD4^+ T-cells were evaluated using flow cytometry. A dose versus response curve was fitted to a four- or five-parameter log-logistic model (using the “drc” package in “R”). The EC50 and EC90 values were obtained by model fitting.

FoxP3^+/CD4^+ T-cells [4] = assay: Splenocyte flow cytometry at end of EAE study; type: in vivo, mice
Procedure: At the end of the study, spleens were collected from a representative sample of mice from each group for splenocyte analysis. A single-cell suspension was prepared for cellular phenotyping by flow cytometry. Cells were stained and gated for CD4^+T-cells. Percent FoxP3^+/CD4^+ T-cells were evaluated by flow cytometry.

[5] = four-parameter dose-response model, percent FoxP3+/CD4+ T-cells, single oral dose
[6] = four-parameter dose-response model, single oral dose, 100 μl/mouse
[7] = mouse treated after the onset of symptoms

- cell appearance via microscope at end of incubation ([1]; 48 μM, 72 hours): did not look healthy
- EC50 ([1]; 72 hours): 13.4 µM
- EC90 ([1]; 72 hours): 15 µM
SMILES: CCCCCCCCCCCCCCCCOC(=O)NC[C@H](N)C(=O)O [Compound 1, (S)-2-amino-3-(((hexadecyloxy)carbonyl)amino) propanoic acid]
- increase in FoxP3+/TIM3+ CD4 T-cells over low dose ([1]; 10 μM): 126%
- change in FoxP3+/TIM3+ CD4 T-cells with dose [1]: dose-dependent increase
- FoxP3+/TIM3+ double positive CD4 T-cells, mean value ([1]; high dose, 72 hours): 8.26%
- FoxP3+/TIM3+ double positive CD4 T-cells, mean value ([1]; low dose, 72 hours): 3.65%

SMILES: CCCCCCCCCCCCCCCCCC(=O)NC[C@H](N)C(=O)O [Compound 2, (S)-2-amino-3-stearamidopropanoic acid]
- increase in FoxP3+/TIM3+ CD4 T-cells over low dose ([1]; 30 μM): 129%
- toxicity in vitro ([1]; 30 µM dose): less toxicity in vitro compared to Compound 1
- change in FoxP3+/TIM3+ CD4 T-cells with dose [1]: dose-dependent increase
- EC50 ([1]; 72 hours): 14.6 µM
- EC90 ([1]; 72 hours): 17.8 µM
- FoxP3+/TIM3+ double positive CD4 T-cells, mean value ([1]; high dose, 72 hours): 7.36%
- FoxP3+/TIM3+ double positive CD4 T-cells, mean value ([1]; low dose, 72 hours): 3.21%
- maximum efficacious dose in vitro ([1]; preliminary data): 42 µM
- mean clinical score by end of the study ([2]; prophylactic): 2.1
- disease onset, day after immunization ([2]; prophylactic, 100 μl of 42 μM PO QD from four days after immunization, control day 9): 12 days
- mean clinical score at peak symptoms ([2]; prophylactic, day 17, control 4.77): 2.6
- day by which all animals showed symptoms ([2]; prophylactic, control 11): 13 days
- delay in disease progression after disease onset ([2]; therapeutic, 100 μl of 42 μM PO QD from clinical score of 1): one-day
- mean clinical score lower than in the untreated arm ([2]; therapeutic, by the end of the study): 54%
- mean clinical score at peak symptoms ([2]; therapeutic, day 6 after the onset of symptoms, control 4.77 on day 7): 2.8
- mean clinical score after the peak ([2]; therapeutic, day 10 after the onset of symptoms): 2.33
- animals that spontaneously died or were euthanized (survival analysis) ([2]; untreated group eight out of nine): zero out of nine
- E0 (model estimated), Mean (FoxP3^+/CD4^+ T-cells [3]; [5]): 3.3
- Emax (model estimated), Mean (FoxP3^+/CD4^+ T-cells [3]; [5]): 12.1%
- ED50 (FoxP3^+/CD4^+ T-cells [3]; [6]): 43.1 µM
- ED90 (FoxP3^+/CD4^+ T-cells [3]; [6]): 281.0 µM
- percentage of FoxP3+/CD4+ T-cells, mean value (FoxP3^+/CD4^+ T-cells [3]; high dose group, 5 days): 11.53%
- percentage of FoxP3+/CD4+ T-cells, mean value (FoxP3^+/CD4^+ T-cells [3]; low dose group, 5 days): 3.87%
- increase of FoxP3+/CD4+ T-cells (T-regs), high dose group compared to low dose group (FoxP3^+/CD4^+ T-cells [3]; single oral dose, 5 days): 219%
- increase of Foxp3+/CD4+ T-cells over the surviving mouse in the untreated group (FoxP3^+/CD4^+ T-cells [4]; [7]): 715%
- percent Foxp3+/CD4+ T-cell (FoxP3^+/CD4^+ T-cells [4]; [7]): 26.1%
- increase of Foxp3+/CD4+ T-cells over control (FoxP3^+/CD4^+ T-cells [4]; prophylactic group): 225%
- percent of Foxp3+/CD4+ T-cells (FoxP3^+/CD4^+ T-cells [4]; prophylactic group, end of study, control 3.20%): 10.4%
